Data on two compounds can be found in patent US20110206756A1, “DITHI[…] CHELATES AND METHODS OF MAKING AND USING THEREOF” (UNIVERSITY OF UTAH RESEARCH FOUNDATION, priority 2008, published 2011).

Series [1] deals with HL-60 myeloid leukemia cell line. The note with it: in P123 Pluronic micelles; for cell growth inhibition compared with vehicle: HL-60, up to 0.24 μM, 3 days.
Procedure: The in vitro anti-leukemic activity of both chelates using the HL-60 myeloid leukemia cell line was compared. […] The DETC/metal chelates were initially dissolved in dimethylsulfoxide (DMSO). This 2 mM DETC/metal stock in DMSO was then mixed with a polymer stock and micellization was allowed to occur at room temperature. The final polymer concentration was 2% by weight. […] DETC/metal chelates were added at concentrations of up to 0.24 μM. Cell growth was assessed after 3 days using the MTS assay.
Series [2] concerns HL-60 cells. As to the kind of experiment: Leukemia cell growth in vivo, HL-60 flank tumors in mice. Further details: species or system NOD/SCID IL2Rγ^null mice. The source says: In another preliminary experiment, the effect of DETC/metal chelates on leukemia cell growth in vivo was studied. NOD/SCID IL2Rγ^null mice were implanted bilaterally in the flanks with 19×10^6 HL-60 cells. […] The experiment was terminated on day 15. At that point 3 out of 4 control animals had died and the one remaining alive had tumor volumes that had exceeded 10% of initial body weight. None of the animals treated with DETC/Cu died.

In series [3] the test system is HL-60 cells. The note with it: HL-60, 0.32 μM, 24 hours, average and SEM of 3 experiments; controls 7±1%.
Procedure: HL-60 cells were treated with DETC/Cu^2+ at a concentration of 0.32 μM for 24 hours upon which the number of apoptotic cells was determined using propidium iodide (PI) staining and flow cytometry. Analysis for the presence of apoptotic cells was modeled using the ModFit software.
Series [4] has as its system hepatoma cell line Hep-3B. The conditions noted are these: read-out: 50% growth inhibitory concentration (IC50), two days, in P123 micelles.
Procedure: (§1) The effect of DETC/Cu^2+ chelates on the growth of 3 solid tumor cell lines in vitro was studied. The cell lines studied were the colon cancer cell line DLD-1, the prostate cancer cell line PPC-1 and the hepatoma cell line Hep-3B. […] Cells in logarithmic growth phase were cultured in RPMI1640/10% FBS media at a concentration of 120,000 cells/mL. DETC/Cu^2+ was added to the cells at concentrations ranging from 0 to 1 μM. […] Two days after drug addition, cell growth was assayed using the CellTiter 96 assay from Promega (Madison, Wis.) using the manufacturer's protocol.
Series [5] relates to prostate cancer cell line PPC-1. The note with it: read-out: 50% growth inhibitory concentration (IC50); PPC-1, two days, in P123 micelles.
Procedure: as §1
Series [6] relates to colon cancer cell line DLD-1. The conditions noted are these: read-out: 50% growth inhibitory concentration (IC50); DLD-1, two days, in P123 micelles.
Procedure: as §1

For the compound `CCN(CC)C(=S)[S-].[Ag+]` [DETC/Ag^+, silver salt of diethyldithiocarbamate], the “cell growth inhibition compared with vehicle” value in series [1] is listed as “growth inhibition to a much greater extent”.
With `CCN(CC)C(=S)[S-].CCN(CC)C(=S)[S-].[Cu+2]` [DETC/Cu^2+, copper salt of diethyldithiocarbamate], the toxicity entry in the series with HL-60 cells [2] (2 μmol/kg intravenously every other day, in P123 micelles) was “No obvious toxicity”. Also, in the series on HL-60 cells [2] (after 12 days of therapy, 2 μmol/kg i.v. every other day, versus P123 micelle controls), the “tumor volume, tumor growth” value is given as “delay in tumor growth”. Moreover, the animals that died result in the series with HL-60 cells [2] (day 15, 4 mice per group, 3 out of 4 controls died) is on record as “None”. In the series with HL-60 cells [3], the apoptotic cells turned out to be 16±2%. Further, the IC50 stood at 130 nM in series [4], 180 nM in series [5] and 370 nM in series [6]. The “relative potency of growth inhibition” value in series [1] (HL-60, 3 days) was “more potent than the DETC/Ag^+ chelate”. The “cell growth inhibition compared with vehicle” value in series [1] was “growth inhibition to a much greater extent”.
